# Patent US9044478B2, “Use of 1,4-bis (3-aminoalkyl) piperazine derivatives in the treatment of neurodegenerative diseases” (INSTITUT NATIONAL DE LA SANTE ET DE LA RECHERCHE MEDICALE, priority 2004, dated 2015)
# Legend:
# Aβ1-42 = test: Aβ 1-42 of the cell supernatant quantified by ELISA (Innotest β-Amyloid1-42); format: cell-based, human
# Description: (§1) The human neuroblastoma cell line SH-SYSY were cultured in Dulbecco's modified Eagle medium supplemented with 10% fetal calf serum, 2 mM L-glutamine, 1 mM non-essential amino-acids, penicillin/streptomycin (Invitrogen SARL, Cergy Pontoise, France) and 200 μg/ml G418 (to select for APP expression) in a 5% CO2 humidified incubator at 37° C. APP751 cDNA with the Swedish mutation (APP^Sw) was subcloned into stably eukaryotic expression vector pcDNA3 (Invitrogen), allowing for a G418 (Invitrogen) selection of stable clones. This APP cDNA was stably transfected into SH-SY5Y cells using the ethyleneimine polymer ExGen 500 (Euromedex) according to the manufacturer's instructions.
# (§2) Cells were plated into 6-well plates 24 h before drug exposure. […] After treatment, the medium was collected for the dosage of Aβ1-42. Cells were washed with phosphate-buffered saline and scraped with a policeman rubber in 70 μl of Laemmli sample buffer with protease inhibitors (Complete Mini Roche Molecular Biochemicals, Meylan, France), sonicated and heat-treated for 5 min at 100° C. Protein concentration was established using the PlusOne™ 2-D Quant Kit (Amersham Biosciences, Orsay, France) and samples were kept at −80° C. until used.
# The collected medium was spun at 200 g to eliminate the cell debris and Aβ1-42 concentration was determined using the Innotest® β-Amyloid1-42 (Innogenetics, Ghent, Belgium) according to the manufacturer's instructions.
# (§3) SKNSH SY5Y transfected cells were grown in the presence of drugs at different concentrations, for example at 1 μM or 5 μM, then cells were harvested and analyzed for their APP-CTF content, using the western-blot approach, while Aβ 1-42 of the cell supernatant Was quantified by ELISA, as described in material and methods. For each compound, normal levels have the arbitrary value of 1. For example, if one APP-CTF is increased 10 times, the value is reported as 10. For Aβ peptide, if decreased of 60%, the value is reported as 0.4 (40% remaining).
# APP-CTFs = APP-CTFs content of APPSw-transfected SH-SY5Y cells by western blot; format: cell-based, human; design: key to β (APP-CTF β stub level, normal level = 1) / α (APP-CTF α stub level, normal level = 1) / γ (APP-CTF γ stub level, normal level = 1) / CTFs (APP-CTFs level, normal level = 1): fold of normal level, normal = 1
# Description: as §1, §2
# The APPCter-C17 antibody is raised against the last 17 amino acids of the human APP sequence (Sergeant, N., David, J. P., Champain, D., Ghestem, A., Wattez, A., and Delacourte, A. (2002) J Neurochem 81, 663-672). This polyclonal antibody detects all APP-CTFs fragments. The tubulin signal was used as a loading control and to normalize the APP-CTFs content. Anti-mouse or anti-rabbit secondary antibodies coupled with horseradish peroxidase were purchased at SIGMA Immunochemicals (Saint Quentin Fallavier, France).
# The same quantity of total proteins (20 μg/lane) was loaded on a 16.5% Tris-tricine polyacrylamide gel. Tris-tricine SDS-polyacrylamide gel electrophoresis (PAGE) was performed following the procedure of Schagger and Von Jagow (1987) (Schagger, H., and von Jagow, G. (1987) Anal Biochem 166, 368-379) with a protean II Xi Cell (Bio-Rad, Marnes la coquette, France). Proteins were transferred to nitrocellulose membrane at 2.5 mA/cm^2 per gel using the SemiDry Novablot Transfer system (Amersham Biosciences, Orsay, France), according to the manufacturer's instructions. Proteins were reversibly stained with Ponceau Red to check the quality of the transfer. Membranes were blocked in 25 mM Tris-HCl pH 8.0, 150 mM NaCl, 0.1% Tween-20 (v/v) and 5% (w/v) of skimmed milk for 30 min. Membranes were incubated overnight at 4° C. with appropriate dilutions of the primary antibodies, and incubated for 1 h at room temperature with secondary antibody.
# Western blot films were digitized using an UMax scanner calibrated for optical densities (Amersham Biosciences). The Image-MASTER 1D ELITE Software (Amersham Biosciences) was used to quantify the signal, and data were collected using Excel Software (Microsoft, LesUlis, France).
# as §3
# [1] = test system: brain capillary endothelial cells co-cultured with glial cells; test: In vitro Blood-Brain Barrier model, drug transport; format: in vitro ADME; settings: for Permeability coefficient: in vitro BBB model
# From the text: (§4) The ability of some compounds to cross the Blood-Brain Barrier (BBB) has been evaluated, using an in vitro model (Cecchelli, R., et al., In vitro model for evaluating drug transport across the blood-brain barriers. Adv Drug Deliv Rev, 1999. 36(2-3): p. 165-178). The described model consists in brain capillary endothelial cells co-cultured with glial cells, thereby closely mimicking the in vivo conditions (Lundquist, S, and M. Renftel, The use of in vitro cell culture models for mechanistic studies and as permeability screens for the blood-brain barrier in the pharmaceutical industry-background and current status in the drug discovery process. Vascul Pharmacol 2002. 38(6): p. 355-64) and developed by CELLIAL Technologies SA.
# (§5) The transport of drug was good for example 16 and moderate for example 23. Indeed, the permeability coefficients obtained for example 16 (2.26×10^−3 cm/min) and example 23 (1.81×10^−3 cm/min) indicate that these compounds cross the BBB and are good candidates as CNS drugs.
# [2] = test system: endothelial cell monolayer; test: Toxicity on the endothelial cell monolayer of the BBB model; format: cell-based; settings: concentration of 10 μM
# From the text: as §4, §5
# [3] = Solubility in the BBB screening; format: physicochemical
# From the text: as §5
# [4] = greater concentration (5 μM) at 24 hours
# [5] = low concentration (1 μM) at 6 hours
# [6] = 24 h, 1 μM as printed (fourth column)
compound,measurement,setting,value
"1,4-bis{3-[N-n-heptyl)amino]propyl}piperazine [Example 10]",Decrease of Aβ peptide levels compared to the control (FIG. 1),Aβ1-42; [4],efficiency is confirmed
same,Decrease of Aβ peptide levels compared to the control (FIG. 1),Aβ1-42; [5],efficient to decrease Aβ peptide levels
Clc1ccc(CNCCCN2CCN(CCCNCc3ccc(Cl)cc3)CC2)cc1 [Example 4],Efficiency for α and γ-APP-CTFs stubs,APP-CTFs,particularly high efficiency
same,"CTFs (APP-CTFs level, normal level = 1)","APP-CTFs; 6 h, 1 μM",6
same,"α (APP-CTF α stub level, normal level = 1)","APP-CTFs; 6 h, 1 μM",14
same,"β (APP-CTF β stub level, normal level = 1)","APP-CTFs; 6 h, 1 μM",0.8
same,"γ (APP-CTF γ stub level, normal level = 1)","APP-CTFs; 6 h, 1 μM",9.6
same,"CTFs (APP-CTFs level, normal level = 1)","APP-CTFs; 6 h, 5 μM",5
same,"α (APP-CTF α stub level, normal level = 1)","APP-CTFs; 6 h, 5 μM",11
same,"β (APP-CTF β stub level, normal level = 1)","APP-CTFs; 6 h, 5 μM",1.2
same,"γ (APP-CTF γ stub level, normal level = 1)","APP-CTFs; 6 h, 5 μM",5.7
same,"CTFs (APP-CTFs level, normal level = 1)","APP-CTFs; 24 h, 1 μM (third column)",3.5
same,"α (APP-CTF α stub level, normal level = 1)","APP-CTFs; 24 h, 1 μM (third column)",3.5
same,"β (APP-CTF β stub level, normal level = 1)","APP-CTFs; 24 h, 1 μM (third column)",0.8
same,"γ (APP-CTF γ stub level, normal level = 1)","APP-CTFs; 24 h, 1 μM (third column)",5.1
same,"CTFs (APP-CTFs level, normal level = 1)",APP-CTFs; [6],65
same,"α (APP-CTF α stub level, normal level = 1)",APP-CTFs; [6],7
same,"β (APP-CTF β stub level, normal level = 1)",APP-CTFs; [6],5
same,"γ (APP-CTF γ stub level, normal level = 1)",APP-CTFs; [6],14.4
same,Efficiency for Aβ peptide (FIG. 1),Aβ1-42,particularly high efficiency
same,"Aβ (Aβ peptide level, normal level = 1; fraction remaining)","Aβ1-42; 6 h, 1 μM",0.2
same,"Aβ (Aβ peptide level, normal level = 1; fraction remaining)","Aβ1-42; 6 h, 5 μM",0
same,"Aβ (Aβ peptide level, normal level = 1; fraction remaining)","Aβ1-42; 24 h, 1 μM (third column)",1
same,"Aβ (Aβ peptide level, normal level = 1; fraction remaining)",Aβ1-42; [6],0.1
same,Decrease of Aβ peptide levels compared to the control (FIG. 1),Aβ1-42; [4],efficiency is confirmed
same,Decrease of Aβ peptide levels compared to the control (FIG. 1),Aβ1-42; [5],efficient to decrease Aβ peptide levels
N^4-(3-{4-[3(diisobutylamino)propyl]piperizano}propyl)-benzimidazol-2-amine [Example 16],Transport of drug across the in vitro BBB,[1],good
same,Diffusion across the filter membrane coated with collagen and without cells,[1],able to diffuse across the filter membrane
same,Permeability coefficient,[1],37.7 ×10⁻⁶ cm/s
same,Toxicity on the endothelial cell monolayer,[2],not toxic
same,Solubility,[3],soluble
N^4-[3-(4-{3-[diisobutylamino]propyl}piperizano)propyl]-4-benzyloxyamine [Example 23],Transport of drug across the in vitro BBB,[1],moderate
same,Diffusion across the filter membrane coated with collagen and without cells,[1],able to diffuse across the filter membrane
same,Permeability coefficient,[1],30.2 ×10⁻⁶ cm/s
same,Toxicity on the endothelial cell monolayer,[2],not toxic
same,Solubility,[3],soluble
